Experimental data taken from patent publication US6492302B1, “Compositions for the protection of plants against the stress of oxidation” (priority 1998, dated 2002).

Experiment: antioxidant properties of lipo-amino acids

Substance: butyryl-cystine
- antioxidant properties: does not possess these properties
